Measured values taken from patent EP2974721A1, “A PHARMACEUTICAL COMPOSITION COMPRISING A GAS GENERATING INGREDIENT” (Nanomega Medical Corporation, priority 2014, dated 2016).

What was measured:
Caco-2 cell monolayers = test: Epithelial permeability: transmission of FITC-insulin across cell monolayers (fluorescence microscopy); format: cell-based, human; conditions: cells co-cultured with the component; stained for Cld 4, E-cadherin, DAPI; result in words
Description: Cell images of cells bound with nano/micro bubbles.
Enhanced epithelial permeability. Drug permeation may occur across the intestinal epithelium and through either transcellular or paracellular routes. To elucidate the precise mechanisms of interactions between the bubble carrier system and epithelial cells and its subsequent transport of the drug, the effects of DTPA and SDS on epithelial permeability were individually studied using Caco-2 cell monolayers. Monolayers of Caco-2 cells derived from human colorectal adenocarcinoma are widely used in in vitro models for predicting intestinal drug permeability.

intestinal proteases = test: Inhibition of proteolytic degradation of insulin in isolated proximal small intestine (duodenum); format: biochemical; conditions: added to insulin; duodenum freshly isolated from rats; result in words
Description: Inhibition of proteolytic degradation. Inhibiting the proteolytic degradation of insulin in the intestinal fluid and the mucosal layer is critical for increasing its oral bioavailability. The inhibiting effects of DTPA and SDS on intestinal proteases were separately studied in in vitro studies of the proximal portion of the small intestine (i.e., the duodenum) freshly isolated from rats. The various digestive enzymes secreted from the pancreas into the duodenum are well-recognized. […] Insulin is highly sensitive to trypsin and chymotrypsin, which are Ca^2+-dependent enzymes in the intestinal fluid and in the mucosal layer. One strategy for inhibiting intestinal protease activities is using complexing agents such as DTPA to remove essential metal ions (e.g., Ca^2+) from the enzyme structure at vicinity of the bioactive agent. […] Proposed molecular mechanisms of proteolytic inhibition by SDS include local conformational changes or altered charge distributions of the proteases induced by their specific binding of SDS.

Row | Compound | transmission of FITC-insulin (pathway) (Caco-2 cell monolayers) | protective effect on insulin against the intestinal proteases (intestinal proteases)
1 | O=C(O)CN(CCN1CC(=O)OC(=O)C1)CCN1CC(=O)OC(=O)C1 [DTPA dianhydride, diethylenetriaminepentaacetic dianhydride] | promote transmission of FITC-insulin via paracellular pathway | 
2 | O=C(O)CN(CCN(CC(=O)O)CC(=O)O)CCN(CC(=O)O)CC(=O)O [DTPA, diethylene triamine pentaacetic acid] |  | strong protective effect
3 | CCCCCCCCCCCCOS(=O)(=O)[O-].[Na+] [SDS, sodium dodecyl sulfate] | promote transmission of FITC-insulin via both of paracellular pathway and transcellular pathway | strong protective effect
